Data as given in PubChem BioAssay (NCI).
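Cultured in 96-well plates, cells were exposed to test compound for 48 hours across five concentrations. TGI denotes the concentration required for complete inhibition of growth.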

Experiments:
Assay in all cases: DTP human tumour cell line panel, 48 h
786-0 renal = test system: 786-0 renal
A549 NSCLC = test system: A549 NSCLC
ACHN renal = test system: ACHN renal
CAKI-1 renal = test system: CAKI-1 renal
CCRF-CEM leukemia = test system: CCRF-CEM leukemia
COLO 205 colon = test system: COLO 205 colon
DLD-1 colon = test system: DLD-1 colon
DMS 114 small cell lung = test system: DMS 114 small cell lung
EKVX NSCLC = test system: EKVX NSCLC
HCT-116 colon = test system: HCT-116 colon
HCT-15 colon = test system: HCT-15 colon
HL-60(TB) leukemia = test system: HL-60(TB) leukemia
HOP-18 NSCLC = test system: HOP-18 NSCLC
HOP-62 NSCLC = test system: HOP-62 NSCLC
HOP-92 NSCLC = test system: HOP-92 NSCLC
HT29 colon = test system: HT29 colon
IGROV1 ovarian = test system: IGROV1 ovarian
K-562 leukemia = test system: K-562 leukemia
KM12 colon = test system: KM12 colon
KM20L2 colon = test system: KM20L2 colon
LXFL 529 NSCLC = test system: LXFL 529 NSCLC
M14 melanoma = test system: M14 melanoma
M19-MEL melanoma = test system: M19-MEL melanoma
MALME-3M melanoma = test system: MALME-3M melanoma
MOLT-4 leukemia = test system: MOLT-4 leukemia
NCI-H226 lung = test system: NCI-H226 lung
NCI-H23 lung = test system: NCI-H23 lung
NCI-H460 lung = test system: NCI-H460 lung
NCI-H522 lung = test system: NCI-H522 lung
OVCAR-3 ovarian = test system: OVCAR-3 ovarian
OVCAR-4 ovarian = test system: OVCAR-4 ovarian
OVCAR-8 ovarian = test system: OVCAR-8 ovarian
RPMI-8226 leukemia = test system: RPMI-8226 leukemia
RXF 393 renal = test system: RXF 393 renal
RXF-631 renal = test system: RXF-631 renal
SF-268 CNS = test system: SF-268 CNS
SF-295 CNS = test system: SF-295 CNS
SF-539 CNS = test system: SF-539 CNS
SK-MEL-2 melanoma = test system: SK-MEL-2 melanoma
SK-MEL-28 melanoma = test system: SK-MEL-28 melanoma
SK-MEL-5 melanoma = test system: SK-MEL-5 melanoma
SK-OV-3 ovarian = test system: SK-OV-3 ovarian
SN12C renal = test system: SN12C renal
SNB-19 CNS = test system: SNB-19 CNS
SNB-75 CNS = test system: SNB-75 CNS
SR leukemia = test system: SR leukemia
SW-620 colon = test system: SW-620 colon
TK-10 renal = test system: TK-10 renal
U251 CNS = test system: U251 CNS
UACC-257 melanoma = test system: UACC-257 melanoma
UACC-62 melanoma = test system: UACC-62 melanoma
UO-31 renal = test system: UO-31 renal
XF 498 CNS = test system: XF 498 CNS
A498 renal = test system: A498 renal
DMS 273 small cell lung = test system: DMS 273 small cell lung
HCC-2998 colon = test system: HCC-2998 colon
LOX IMVI melanoma = test system: LOX IMVI melanoma
OVCAR-5 ovarian = test system: OVCAR-5 ovarian
SNB-78 CNS = test system: SNB-78 CNS

Measured: TGI

O=c1nc(-c2ccccc2)scc1-c1ccccc1
> 100 µM: 786-0 renal | A549 NSCLC | ACHN renal | CAKI-1 renal | CCRF-CEM leukemia | COLO 205 colon | DLD-1 colon | DMS 114 small cell lung | EKVX NSCLC | HCT-116 colon | HCT-15 colon | HL-60(TB) leukemia | HOP-18 NSCLC | HOP-62 NSCLC | HOP-92 NSCLC | HT29 colon | IGROV1 ovarian | K-562 leukemia | KM12 colon | KM20L2 colon | LXFL 529 NSCLC | M14 melanoma | M19-MEL melanoma | MALME-3M melanoma | MOLT-4 leukemia | NCI-H226 lung | NCI-H23 lung | NCI-H460 lung | NCI-H522 lung | OVCAR-3 ovarian | OVCAR-4 ovarian | OVCAR-8 ovarian | RPMI-8226 leukemia | RXF 393 renal | RXF-631 renal | SF-268 CNS | SF-295 CNS | SF-539 CNS | SK-MEL-2 melanoma | SK-MEL-28 melanoma | SK-MEL-5 melanoma | SK-OV-3 ovarian | SN12C renal | SNB-19 CNS | SNB-75 CNS | SR leukemia | SW-620 colon | TK-10 renal | U251 CNS | UACC-257 melanoma | UACC-62 melanoma | UO-31 renal | XF 498 CNS

COC(=O)C1=C(C)N(NC(=O)c2cccc(Cl)c2)C(C)(O)C12CCOC2=O (stereo not drawn)
> 100 µM: 786-0 renal | A498 renal | A549 NSCLC | ACHN renal | CAKI-1 renal | DMS 114 small cell lung | DMS 273 small cell lung | EKVX NSCLC | HCC-2998 colon | HCT-116 colon | HCT-15 colon | HOP-62 NSCLC | HT29 colon | IGROV1 ovarian | K-562 leukemia | KM12 colon | KM20L2 colon | LOX IMVI melanoma | LXFL 529 NSCLC | M14 melanoma | M19-MEL melanoma | MALME-3M melanoma | MOLT-4 leukemia | NCI-H226 lung | NCI-H460 lung | NCI-H522 lung | OVCAR-3 ovarian | OVCAR-4 ovarian | OVCAR-5 ovarian | OVCAR-8 ovarian | RPMI-8226 leukemia | RXF-631 renal | SF-268 CNS | SF-295 CNS | SF-539 CNS | SK-MEL-2 melanoma | SK-MEL-28 melanoma | SK-MEL-5 melanoma | SK-OV-3 ovarian | SN12C renal | SNB-19 CNS | SNB-75 CNS | SNB-78 CNS | SR leukemia | SW-620 colon | U251 CNS | UACC-257 melanoma | UACC-62 melanoma | UO-31 renal | XF 498 CNS
